One compound from publication PMC9184693, “Molecular mechanism of interaction between fatty acid delta 6 desaturase and acyl-CoA by computational prediction” (AMB Express, 2022) can be followed below.

For this assay, the target named is T1, MpFADS6 (Micromonas pusilla delta 6 desaturase) (Micromonas pusilla, UniProt C1MMV2).
T1 construct: gene MICPUCDRAFT_32578; pYES2-MpFADS6 expressed in Saccharomyces cerevisiae INVSc1; membrane protein, whole-cell biotransformation
Description: whole-cell biotransformation in yeast, GC-MS of fatty acid methyl esters. The format is cell-based. The note with it: product from 0.25 mM ALA fed to cells; formed as the acyl-CoA.

Molecules are shown by their SMILES.

T1 sequence (C1MMV2 entry or part of it): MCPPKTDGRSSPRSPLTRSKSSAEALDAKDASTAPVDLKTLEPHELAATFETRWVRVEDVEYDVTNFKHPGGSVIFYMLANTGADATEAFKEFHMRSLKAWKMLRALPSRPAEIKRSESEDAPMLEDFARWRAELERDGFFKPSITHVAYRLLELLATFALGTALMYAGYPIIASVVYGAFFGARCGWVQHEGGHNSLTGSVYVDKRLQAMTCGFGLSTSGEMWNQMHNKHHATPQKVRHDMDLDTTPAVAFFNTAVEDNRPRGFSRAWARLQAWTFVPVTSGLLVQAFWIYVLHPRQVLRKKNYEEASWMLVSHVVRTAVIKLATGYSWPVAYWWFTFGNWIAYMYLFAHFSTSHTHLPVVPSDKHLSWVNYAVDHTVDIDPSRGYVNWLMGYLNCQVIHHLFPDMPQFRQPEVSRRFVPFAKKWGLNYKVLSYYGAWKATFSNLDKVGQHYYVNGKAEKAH

For the compound `CC/C=C\C/C=C\C/C=C\C/C=C\CCCCC(=O)O` [stearidonic acid], the “whole-cell biotransformation in yeast, GC-MS of fatty acid methyl esters” value is recorded as “Desaturase activity is represented by the conversion rate of ALA to SDA”.
